The source made the active and inactive calls. No cut-off for these calls is given here.
Tests used:
[1] = test system: MCF7; experiment: Antiproliferative activity against human MCF7 cells after 48 hrs by SRB assay; type: functional; settings: MCF7, 48 h, read-out: GI50
[2] = test system: U-251; experiment: Antiproliferative activity against human U251 cells after 48 hrs by SRB assay; type: functional; settings: U-251, 48 h, read-out: GI50
[3] = test system: HCT-116; experiment: Antiproliferative activity against human HCT116 cells after 48 hrs by SRB assay; type: functional; settings: HCT-116, 48 h, read-out: GI50
[4] = test system: NCI-H522; experiment: Antiproliferative activity against human NCI-H522 cells after 48 hrs by SRB assay; type: functional; settings: NCI-H522, 48 h, read-out: GI50
[5] = test system: LOX IMVI; experiment: Antiproliferative activity against human LOXIMVI cells after 48 hrs by SRB assay; type: functional; settings: read-out: GI50
[6] = test system: SK-OV-3; experiment: Antiproliferative activity against human SKOV3 cells after 48 hrs by SRB assay; type: functional; settings: SK-OV-3, 48 h, read-out: GI50
[7] = test system: ACHN; experiment: Antiproliferative activity against human ACHN cells after 48 hrs by SRB assay; type: functional; settings: read-out: GI50
[8] = test system: MKN-28; experiment: Antiproliferative activity against human MKN28 cells after 48 hrs by SRB assay; type: functional; settings: MKN-28, 48 h, read-out: GI50
[9] = test system: DU-145; experiment: Antiproliferative activity against human DU145 cells after 48 hrs by SRB assay; type: functional; settings: DU-145, 48 h, read-out: GI50
[10] = target: T1, DNA topoisomerase I (Bos taurus) (UniProt F1MN93); experiment: Inhibition of calf thymus DNA topoisomerase 1 assessed as reduction in enzyme-mediated relaxation of supercoiled pBR322 plasmid DNA at 10 uM after 30 mins by agarose gel electrophoresis
T1 sequence (whole entry): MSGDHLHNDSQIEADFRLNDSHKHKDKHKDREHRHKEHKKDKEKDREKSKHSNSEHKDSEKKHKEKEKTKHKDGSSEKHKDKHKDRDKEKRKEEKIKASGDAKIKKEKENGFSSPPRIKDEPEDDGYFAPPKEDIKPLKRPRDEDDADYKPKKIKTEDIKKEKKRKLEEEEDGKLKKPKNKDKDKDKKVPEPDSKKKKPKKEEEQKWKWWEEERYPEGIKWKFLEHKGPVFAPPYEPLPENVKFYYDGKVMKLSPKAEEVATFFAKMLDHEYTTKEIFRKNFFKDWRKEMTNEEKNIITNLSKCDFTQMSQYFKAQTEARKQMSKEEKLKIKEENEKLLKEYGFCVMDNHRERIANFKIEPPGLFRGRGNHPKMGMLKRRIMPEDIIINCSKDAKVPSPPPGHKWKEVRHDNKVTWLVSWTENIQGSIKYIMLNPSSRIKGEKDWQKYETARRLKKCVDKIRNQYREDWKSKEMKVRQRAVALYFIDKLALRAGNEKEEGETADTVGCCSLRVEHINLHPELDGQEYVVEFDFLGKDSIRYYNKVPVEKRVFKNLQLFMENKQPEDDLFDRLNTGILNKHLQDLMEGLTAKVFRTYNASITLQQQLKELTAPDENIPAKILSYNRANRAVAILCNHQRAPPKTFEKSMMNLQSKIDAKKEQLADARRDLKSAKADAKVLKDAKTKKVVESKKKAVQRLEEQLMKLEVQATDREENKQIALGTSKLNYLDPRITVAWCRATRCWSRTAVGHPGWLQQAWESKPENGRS

[11] = target: T1, DNA topoisomerase I (Bos taurus); experiment: Inhibition of calf thymus DNA topoisomerase 1 assessed as reduction in enzyme-mediated relaxation of supercoiled pBR322 plasmid DNA at 10 uM after 30 mins by ethidium bromide staining-based agarose gel electrophoresis
[12] = test system: Colon 26; experiment: Antitumor activity against mouse Colon 26 cells implanted in BALB/c mouse at 50 mg/kg, iv administered every 2 days for 7 times starting 1 day after tumor implantation and measured daily until day 20; type: functional, organism-based

Row | SMILES | GI50 [1] | GI50 [2] | GI50 [3] | GI50 [4] | GI50 [5] | GI50 [6] | GI50 [7] | GI50 [8] | GI50 [9] | inhibition [10] | inhibition [11] | Activity [12]
1 | CCc1c2c(nc3ccc(O)cc13)-c1cc3c(c(=O)n1C2)COC(=O)[C@]3(O)CC [7-ETHYL-10-HYDROXYCAMPTOTHECIN] | 0.003 µM | 0.0028 µM | 0.023 µM | 0.0037 µM | 0.0053 µM | 0.023 µM | 0.0059 µM | 0.11 µM | 0.0043 µM | – | – | –
2 | CC[C@@]1(O)C(=O)OCc2c1cc1n(c2=O)Cc2cc3ccccc3nc2-1 | – | – | – | – | – | – | – | – | – | Active | Active | –
3 | COc1cc2c(cc1O)oc(=O)c1c2cc2c3cc(OC)c(O)cc3ccn21 | 0.076 µM | 0.027 µM | 0.033 µM | < 0.01 µM | 0.02 µM | 0.083 µM | 0.014 µM | 0.084 µM | 0.02 µM | – | – | –
4 | COc1cc2c(cc1O)oc(=O)c1c2c(F)c2c3cc(OC)c(O)cc3ccn21 | 0.11 µM | 0.071 µM | 0.12 µM | < 0.01 µM | 0.024 µM | 0.47 µM | 0.028 µM | 0.36 µM | 0.024 µM | – | – | –
5 | COc1cc2c(cc1O)oc(=O)c1c2c(CN(C)C)c2c3cc(OC)c(O)cc3ccn21 | 0.055 µM | 0.1 µM | 0.31 µM | 0.082 µM | 0.18 µM | 1.6 µM | 0.044 µM | 2.3 µM | 0.11 µM | – | – | –
6 | CCc1c2c(nc3ccc(OC(=O)N4CCC(N5CCCCC5)CC4)cc13)-c1cc3c(c(=O)n1C2)COC(=O)[C@]3(O)CC | – | – | – | – | – | – | – | – | – | – | – | Active
7 | COc1cc2c(cc1O)oc(=O)c1c2c(C)c2c3cc(OC)c(O)cc3ccn21 | 0.11 µM | 0.0091 µM | 0.033 µM | 0.0047 µM | 0.0055 µM | 0.038 µM | 0.0038 µM | 0.064 µM | 0.0047 µM | – | – | –
8 | COc1cc(-c2c3c4cc(OC)c(O)cc4oc(=O)c3n3ccc4cc(O)c(OC)cc4c23)ccc1O [LAMELLARIN D] | < 0.01 µM | < 0.01 µM | < 0.01 µM | < 0.01 µM | < 0.01 µM | 0.038 µM | < 0.01 µM | 0.05 µM | < 0.01 µM | Active | Active | –
9 | C=CCn1c2c3cc(OC)c(O)cc3ccc2c2c(=O)oc3cc(O)c(OC)cc3c21 | 0.014 µM | 0.0076 µM | 0.025 µM | 0.0095 µM | 0.0064 µM | 0.029 µM | 0.0042 µM | 0.082 µM | 0.0065 µM | – | – | –
10 | COc1cc2c(cc1O)oc(=O)c1c2c(Cl)c2c3cc(OC)c(O)cc3ccn21 | 0.013 µM | < 0.01 µM | 0.037 µM | < 0.01 µM | < 0.01 µM | 0.25 µM | < 0.01 µM | 0.13 µM | < 0.01 µM | – | – | –
11 | C#CCn1c2c3cc(OC)c(O)cc3ccc2c2c(=O)oc3cc(O)c(OC)cc3c21 | 0.018 µM | < 0.01 µM | 0.034 µM | < 0.01 µM | < 0.01 µM | 0.056 µM | < 0.01 µM | 0.066 µM | 0.027 µM | – | – | –
12 | COc1cc2c(ccc3c2[nH]c2c4cc(OC)c(O)cc4oc(=O)c32)cc1O | 0.068 µM | < 0.01 µM | 0.088 µM | < 0.01 µM | 0.021 µM | 0.33 µM | 0.11 µM | 1.6 µM | 0.051 µM | Active | Active | –
13 | COc1cc2c(ccc3c4c(=O)oc5cc(O)c(OC)cc5c4n(CCN(C)C)c23)cc1O | 0.0026 µM | 0.004 µM | 0.0097 µM | 0.0039 µM | 0.0027 µM | 0.026 µM | 0.0019 µM | 0.067 µM | 0.002 µM | Active | Active | –
14 | COc1cc2c(cc1O)oc(=O)c1c2c(Br)c2c3cc(OC)c(O)cc3ccn21 | 0.041 µM | 0.029 µM | 0.067 µM | 0.014 µM | 0.025 µM | 0.5 µM | 0.015 µM | 0.56 µM | 0.028 µM | – | – | –
15 | CCn1c2c3cc(OC)c(O)cc3ccc2c2c(=O)oc3cc(O)c(OC)cc3c21 | < 0.01 µM | < 0.01 µM | < 0.01 µM | < 0.01 µM | < 0.01 µM | < 0.01 µM | < 0.01 µM | < 0.01 µM | < 0.01 µM | – | – | –
16 | COc1cc2c(cc1O)oc(=O)c1c2c(C=O)c2c3cc(OC)c(O)cc3ccn21 | 0.037 µM | 0.029 µM | 0.078 µM | 0.021 µM | 0.035 µM | 0.23 µM | 0.026 µM | 0.23 µM | 0.028 µM | – | – | –

— ChEMBL document CHEMBL4308908, “Lamellarin-inspired potent topoisomerase I inhibitors with the unprecedented benzo[g][1]benzopyrano[4,3-b]indol-6(13H)-one scaffold” (Bioorg Med Chem, 2019)
